The numbers were not newly measured in patent US20220202680A1, “INCREASING THE STABILITY OF AGENTS FOR TREATING KERATIN MATERIAL” (Henkel AG & Co. KGaA, priority 2019, published 2022), which cites them from elsewhere.

Molecules are shown by their SMILES.

For the series the following is noted: for solubility in water: 25° C.

For the compound `O=C([O-])C1=NN(c2ccc(S(=O)(=O)[O-])cc2)C(=O)C1N=Nc1ccc(S(=O)(=O)[O-])cc1.[Na+].[Na+].[Na+]` (stereo not shown) [Acid Yellow 23, trisodium salt of 4,5-dihydro-5-oxo-1-(4-sulfophenyl)-4-((4-sulfophenyl)azo)-1H-pyrazole-3-carboxylic acid], for the setting “at 25° C.”, the “solubility in water (in words)” value is given as “highly soluble”.
`O=C([O-])c1c(Cl)c(Cl)c(Cl)c(Cl)c1-c1c2c(Br)cc(=O)c(Br)c-2oc2c(Br)c(O)cc(Br)c12.O=C([O-])c1c(Cl)c(Cl)c(Cl)c(Cl)c1-c1c2c(Br)cc(=O)c(Br)c-2oc2c(Br)c(O)cc(Br)c12.[Na+].[Na+]` [Acid Red 92, disodium salt of 3,4,5,6-tetrachloro-2-(1,4,5,8-tetrabromo-6-hydroxy-3-oxoxanthen-9-yl)benzoic acid]: the solubility in water result is listed as “greater than 10 g/L”.
For the compound `O=S(=O)([O-])c1ccc(N=Nc2c(O)ccc3ccccc23)cc1.[Na+]` [Acid Orange 7, sodium salt of 4-[(2-hydroxy-1-naphthyl)azo]benzene sulphonate], the solubility in water result was “more than 7 g/L”.
On to `Nc1cc(S(=O)(=O)[O-])cc2cc(S(=O)(=O)[O-])c(N=Nc3ccccc3)c(O)c12.[Na+].[Na+]` [Acid Red 33, diantrium salt of 5-amino-4-hydroxy-3-(phenylazo)-naphthalene-2,7-disulphonate], for which the solubility in water is 2500 µg/mL.
